Active and inactive are the calls of the source.
Columns and labels:
[1] = target: T1, Cytochrome P450 1A2 (Homo sapiens, UniProt P05177);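 further: PubChem cytochrome P450 panel assay, CYP1A2 panel member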
T1 sequence (P05177 whole entry): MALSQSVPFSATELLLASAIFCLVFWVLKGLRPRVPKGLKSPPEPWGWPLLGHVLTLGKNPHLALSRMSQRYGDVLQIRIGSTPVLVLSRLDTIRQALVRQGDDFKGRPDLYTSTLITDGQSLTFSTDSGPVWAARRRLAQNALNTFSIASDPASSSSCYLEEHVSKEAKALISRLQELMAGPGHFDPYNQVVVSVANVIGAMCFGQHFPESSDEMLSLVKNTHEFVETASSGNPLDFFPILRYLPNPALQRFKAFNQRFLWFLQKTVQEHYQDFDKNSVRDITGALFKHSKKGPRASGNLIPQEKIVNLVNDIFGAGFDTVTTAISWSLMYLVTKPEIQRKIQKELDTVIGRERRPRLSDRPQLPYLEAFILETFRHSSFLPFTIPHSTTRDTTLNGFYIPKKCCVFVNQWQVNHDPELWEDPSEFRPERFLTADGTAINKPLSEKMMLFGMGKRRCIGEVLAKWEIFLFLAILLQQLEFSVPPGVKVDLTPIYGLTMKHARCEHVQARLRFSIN

[2] = microbe, parasite or virus in culture; assay type: functional; settings: Mycobacterium tuberculosis
[3] = target: T2, Probable nicotinate-nucleotide adenylyltransferase (Staphylococcus aureus (strain N315), UniProt P65502); assay type: functional, Staphylococcus aureus subsp. aureus N315; settings: read-out: IC50_Mean;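 on IC50 Mean: confirmatory dose-response retesting of NadD inhibitor hits first found in an ultra-high-throughput screen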
T2 sequence (P65502 whole entry): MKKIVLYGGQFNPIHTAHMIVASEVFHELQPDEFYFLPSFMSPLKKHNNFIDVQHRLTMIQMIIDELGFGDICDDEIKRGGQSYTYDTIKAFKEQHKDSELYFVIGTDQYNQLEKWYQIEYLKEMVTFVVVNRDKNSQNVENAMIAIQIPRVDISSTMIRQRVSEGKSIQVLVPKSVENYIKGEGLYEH

[4] = target: T2, Probable nicotinate-nucleotide adenylyltransferase; assay type: functional, Staphylococcus aureus subsp. aureus N315
[5] = target: T3, Low molecular weight phosphotyrosine protein phosphatase (Homo sapiens, UniProt P24666); assay type: functional; settings: read-out: IC50_Mean
T3 sequence (P24666 whole entry): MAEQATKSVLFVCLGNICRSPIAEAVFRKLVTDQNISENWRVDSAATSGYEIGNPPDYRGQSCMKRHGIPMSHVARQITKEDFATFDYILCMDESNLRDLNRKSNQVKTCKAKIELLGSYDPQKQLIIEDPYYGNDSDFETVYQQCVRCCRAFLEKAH

[6] = target: T4, Calpain-2 catalytic subunit (Sus scrofa, UniProt P43367); assay: pig calpain II inhibitor potency, dose response, biochemical, fluorogenic peptide substrate (AID 1420); assay type: functional
T4 sequence (P43367 whole entry): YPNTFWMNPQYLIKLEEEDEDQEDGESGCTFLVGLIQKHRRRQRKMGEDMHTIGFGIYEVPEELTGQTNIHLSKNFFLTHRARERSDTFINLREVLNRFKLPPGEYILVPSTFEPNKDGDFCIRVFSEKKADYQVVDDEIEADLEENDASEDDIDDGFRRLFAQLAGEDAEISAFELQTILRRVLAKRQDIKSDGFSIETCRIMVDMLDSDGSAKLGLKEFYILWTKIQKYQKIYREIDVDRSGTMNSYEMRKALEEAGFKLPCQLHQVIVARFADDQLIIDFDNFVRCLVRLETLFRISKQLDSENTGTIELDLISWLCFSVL

[7] = target: T3, Low molecular weight phosphotyrosine protein phosphatase; assay type: functional; settings: read-out: IC50_Mean; remark: listed apart in the source
[8] = target: Aryl hydrocarbon receptor (Homo sapiens, UniProt P35869); settings: Potency;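 further: confirmatory quantitative high-throughput screen measuring activation of the AhR signaling pathway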
Aryl hydrocarbon receptor, sequence (P35869 whole entry): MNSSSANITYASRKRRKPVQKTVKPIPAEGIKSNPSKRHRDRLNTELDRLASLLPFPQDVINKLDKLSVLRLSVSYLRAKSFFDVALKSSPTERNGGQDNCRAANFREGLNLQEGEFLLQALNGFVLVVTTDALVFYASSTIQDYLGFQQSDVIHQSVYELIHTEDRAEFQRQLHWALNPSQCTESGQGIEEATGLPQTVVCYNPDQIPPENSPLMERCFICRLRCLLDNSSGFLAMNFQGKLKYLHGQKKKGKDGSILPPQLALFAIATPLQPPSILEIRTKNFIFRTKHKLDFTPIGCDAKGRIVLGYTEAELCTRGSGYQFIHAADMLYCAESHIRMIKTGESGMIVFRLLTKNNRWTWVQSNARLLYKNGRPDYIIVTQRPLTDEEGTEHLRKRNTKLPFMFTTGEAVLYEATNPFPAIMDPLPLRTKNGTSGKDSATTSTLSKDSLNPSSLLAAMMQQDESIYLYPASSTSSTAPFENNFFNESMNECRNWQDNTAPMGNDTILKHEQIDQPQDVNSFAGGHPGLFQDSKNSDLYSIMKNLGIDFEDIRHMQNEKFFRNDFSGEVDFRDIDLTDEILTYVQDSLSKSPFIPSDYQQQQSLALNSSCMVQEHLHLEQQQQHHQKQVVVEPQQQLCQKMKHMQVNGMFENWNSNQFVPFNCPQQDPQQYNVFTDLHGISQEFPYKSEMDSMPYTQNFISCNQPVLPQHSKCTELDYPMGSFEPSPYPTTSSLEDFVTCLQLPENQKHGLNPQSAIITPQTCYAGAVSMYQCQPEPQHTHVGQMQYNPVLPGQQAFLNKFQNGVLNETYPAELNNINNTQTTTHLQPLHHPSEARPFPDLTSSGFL

[9] = cytotoxicity toward NIH3T3 fibroblasts, dose response, counter-screen, cell-based, ATP luminescence, mouse fibroblasts (AID 2010); assay type: functional;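 further: cells exposed to compound for about 90 hours before reading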
[10] = target: T5, Streptokinase A (Streptococcus pyogenes serotype M1, UniProt P10520); assay: S. pyogenes streptokinase expression inhibitors, potency, dose response, plasminogen activation absorbance, OD405 (AID 1914); assay type: functional, Streptococcus pyogenes M1 GAS;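 further: secreted streptokinase activity via plasminogen activation per viability signal from cell pellet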
T5 sequence (P10520 whole entry): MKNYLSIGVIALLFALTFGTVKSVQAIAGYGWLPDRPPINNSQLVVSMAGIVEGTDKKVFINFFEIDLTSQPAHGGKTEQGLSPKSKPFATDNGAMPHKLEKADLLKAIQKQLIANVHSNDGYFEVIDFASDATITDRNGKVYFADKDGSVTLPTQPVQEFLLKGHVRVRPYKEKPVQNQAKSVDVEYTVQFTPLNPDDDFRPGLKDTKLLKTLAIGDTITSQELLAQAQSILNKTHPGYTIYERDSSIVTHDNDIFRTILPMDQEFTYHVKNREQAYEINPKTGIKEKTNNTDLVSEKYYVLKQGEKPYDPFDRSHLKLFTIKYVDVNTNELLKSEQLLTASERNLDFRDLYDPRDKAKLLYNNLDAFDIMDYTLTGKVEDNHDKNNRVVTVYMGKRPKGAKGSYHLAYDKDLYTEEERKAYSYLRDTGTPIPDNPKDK

[11] = target: Melanocortin receptor 4 (Homo sapiens, UniProt P32245); assay: MC4R antagonist potency on cAMP, dose response, cell-based, TR-FRET, biased antagonists (AID 602298); assay type: functional;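 further: antagonist potency against agonist-stimulated cAMP production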
Melanocortin receptor 4, sequence (P32245 whole entry): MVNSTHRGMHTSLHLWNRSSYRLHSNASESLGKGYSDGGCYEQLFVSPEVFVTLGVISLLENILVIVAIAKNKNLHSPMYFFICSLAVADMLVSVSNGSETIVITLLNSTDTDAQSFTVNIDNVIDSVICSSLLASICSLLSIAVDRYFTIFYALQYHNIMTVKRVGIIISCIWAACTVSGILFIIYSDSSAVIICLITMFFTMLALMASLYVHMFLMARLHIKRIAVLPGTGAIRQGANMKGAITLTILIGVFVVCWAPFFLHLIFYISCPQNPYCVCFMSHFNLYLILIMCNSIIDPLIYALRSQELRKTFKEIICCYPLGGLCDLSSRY

[12] = tested on: Streptococcus; assay: Group A Streptococcus viability loss, dose response, counter-screen for streptokinase expression inhibitor project, luminescence, BacTiterGlo (AID 1915); assay type: functional, organism-based;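 further: potency for reduction of bacterial viability or growth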
[13] = target: Paired box protein Pax-8 (Homo sapiens, UniProt Q06710); assay: inhibitors of PAX8-driven TPO luciferase reporter, dose response, RMG-I cells, cherry-pick (AID 687027); assay type: functional, cell-based;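 further: luciferase reporter driven by Pax8 target thyroperoxidase promoter measured by SteadyGlo luminescence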
Paired box protein Pax-8, sequence (Q06710 whole entry): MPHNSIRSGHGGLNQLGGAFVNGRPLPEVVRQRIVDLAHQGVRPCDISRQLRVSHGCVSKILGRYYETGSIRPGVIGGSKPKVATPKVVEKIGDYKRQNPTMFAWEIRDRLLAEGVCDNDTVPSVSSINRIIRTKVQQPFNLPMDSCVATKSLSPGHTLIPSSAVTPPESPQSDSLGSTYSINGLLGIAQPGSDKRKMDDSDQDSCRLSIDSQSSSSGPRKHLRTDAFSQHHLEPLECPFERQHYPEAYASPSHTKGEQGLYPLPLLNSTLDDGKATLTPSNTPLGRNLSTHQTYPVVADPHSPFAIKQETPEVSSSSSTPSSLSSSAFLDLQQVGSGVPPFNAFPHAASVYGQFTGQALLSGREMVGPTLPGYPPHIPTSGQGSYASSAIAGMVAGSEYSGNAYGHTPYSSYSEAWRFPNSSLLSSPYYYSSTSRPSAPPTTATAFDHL

[14] = nonselective inhibitors of cellular cAMP signaling, dose response, counter-screen for MC4R biased antagonist project, cell-based, TR-FRET cAMP detection (AID 602305); assay type: functional;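 further: U2OS cells stimulated with forskolin near its EC80 as the cAMP inducer; potency is for inhibition of forskolin-stimulated cAMP signaling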
[15] = non-specific cell cytotoxicity, dose response, cytotoxicity control for PAX8 inhibitor project, plate reader, dry powder samples (AID 743021); assay type: functional, cell-based
[16] = target: T6, E3 ubiquitin-protein ligase XIAP (Homo sapiens, UniProt P98170); assay: Counter Screen using XIAP-Bir3 for Chemical Antagonists of Bir1/2 domains of IAP-family anti-apoptotic proteins. [Related pubchem assays (depositor defined):AID1018, AID1449, AID1514, AID1638, AID1749, AID1750, AID488957, AID488963]
T6 sequence (P98170 whole entry): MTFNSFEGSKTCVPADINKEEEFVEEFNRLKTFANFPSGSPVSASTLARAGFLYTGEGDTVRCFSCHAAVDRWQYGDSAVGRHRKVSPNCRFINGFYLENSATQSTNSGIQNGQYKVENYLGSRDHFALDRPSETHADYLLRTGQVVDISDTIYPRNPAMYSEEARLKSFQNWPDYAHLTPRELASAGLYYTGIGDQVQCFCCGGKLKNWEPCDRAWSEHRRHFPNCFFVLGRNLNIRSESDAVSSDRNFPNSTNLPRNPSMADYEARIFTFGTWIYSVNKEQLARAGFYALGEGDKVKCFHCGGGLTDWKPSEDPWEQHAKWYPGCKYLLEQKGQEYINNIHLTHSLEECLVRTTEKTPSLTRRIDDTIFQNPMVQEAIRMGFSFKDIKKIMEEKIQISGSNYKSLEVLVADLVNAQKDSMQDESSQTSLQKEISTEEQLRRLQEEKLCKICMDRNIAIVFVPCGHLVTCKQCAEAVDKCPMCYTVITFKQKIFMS

[17] = inhibitors of intracellular T. cruzi replication, confirmation, NIH3T3 host cells, beta-gal luminescence (AID 2044); assay type: functional, cell-based;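 further: intracellular parasites grown in NIH/3T3 mouse fibroblasts as host cells; luminescent beta-galactosidase reporter signal from transgenic T. cruzi replicating inside host cells; inhibitors lower the luminescence signal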
[18] = tested on: Streptococcus sp. 'group A'; assay: growth inhibition of control SK(-) GAS strain, dose response, counter-screen for streptokinase expression inhibitor project, luminescence, kanamycin, BacTiterGlo, confirmation (AID 1900); assay type: functional, organism-based
[19] = target: T6, E3 ubiquitin-protein ligase XIAP; assay: XIAP antagonists, biochemical, IAP family, fluorescence polarization (AID 1018); assay type: functional
[20] = NIH/3T3 fibroblast cytotoxicity, dose response, cytotoxicity control for T. cruzi growth inhibitor project, cell-based, cherry-pick samples, set 2 (AID 651817); assay type: functional; settings: NIH3T3
[21] = target: T7, Microphthalmia-associated transcription factor (Homo sapiens, UniProt O75030); assay: TRPM1 promoter luciferase signal decrease, dose response, MITF inhibitor project, cell-based, SK-MEL-5, cherry-picked, set 3 (AID 493073); assay type: functional
T7 sequence (O75030 whole entry): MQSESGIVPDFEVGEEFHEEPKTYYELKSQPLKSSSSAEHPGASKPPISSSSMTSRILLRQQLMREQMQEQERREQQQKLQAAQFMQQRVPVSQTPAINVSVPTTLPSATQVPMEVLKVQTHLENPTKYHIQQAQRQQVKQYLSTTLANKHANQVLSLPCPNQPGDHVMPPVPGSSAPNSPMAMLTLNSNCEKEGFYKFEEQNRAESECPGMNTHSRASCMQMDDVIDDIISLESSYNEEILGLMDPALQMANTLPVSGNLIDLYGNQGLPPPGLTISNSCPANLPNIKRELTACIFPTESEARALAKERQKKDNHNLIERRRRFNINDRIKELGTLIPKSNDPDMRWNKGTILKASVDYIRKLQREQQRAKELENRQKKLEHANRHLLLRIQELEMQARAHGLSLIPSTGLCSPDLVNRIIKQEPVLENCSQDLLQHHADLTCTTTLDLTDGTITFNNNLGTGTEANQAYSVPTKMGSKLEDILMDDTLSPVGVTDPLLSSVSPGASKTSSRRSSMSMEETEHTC

[22] = target: SWI/SNF-related matrix-associated actin-dependent regulator of chromatin subfamily A member 2 (Homo sapiens, UniProt P51531); assay: Luminescence-based cell-based high throughput dose response assay to identify activators of the function of SWI/SNF related, matrix associated, actin dependent regulator of chromatin, subfamily a, member 2 (SMARCA2, BRM).; assay type: functional
SWI/SNF-related matrix-associated actin-dependent regulator of chromatin subfamily A member 2, sequence (P51531 whole entry): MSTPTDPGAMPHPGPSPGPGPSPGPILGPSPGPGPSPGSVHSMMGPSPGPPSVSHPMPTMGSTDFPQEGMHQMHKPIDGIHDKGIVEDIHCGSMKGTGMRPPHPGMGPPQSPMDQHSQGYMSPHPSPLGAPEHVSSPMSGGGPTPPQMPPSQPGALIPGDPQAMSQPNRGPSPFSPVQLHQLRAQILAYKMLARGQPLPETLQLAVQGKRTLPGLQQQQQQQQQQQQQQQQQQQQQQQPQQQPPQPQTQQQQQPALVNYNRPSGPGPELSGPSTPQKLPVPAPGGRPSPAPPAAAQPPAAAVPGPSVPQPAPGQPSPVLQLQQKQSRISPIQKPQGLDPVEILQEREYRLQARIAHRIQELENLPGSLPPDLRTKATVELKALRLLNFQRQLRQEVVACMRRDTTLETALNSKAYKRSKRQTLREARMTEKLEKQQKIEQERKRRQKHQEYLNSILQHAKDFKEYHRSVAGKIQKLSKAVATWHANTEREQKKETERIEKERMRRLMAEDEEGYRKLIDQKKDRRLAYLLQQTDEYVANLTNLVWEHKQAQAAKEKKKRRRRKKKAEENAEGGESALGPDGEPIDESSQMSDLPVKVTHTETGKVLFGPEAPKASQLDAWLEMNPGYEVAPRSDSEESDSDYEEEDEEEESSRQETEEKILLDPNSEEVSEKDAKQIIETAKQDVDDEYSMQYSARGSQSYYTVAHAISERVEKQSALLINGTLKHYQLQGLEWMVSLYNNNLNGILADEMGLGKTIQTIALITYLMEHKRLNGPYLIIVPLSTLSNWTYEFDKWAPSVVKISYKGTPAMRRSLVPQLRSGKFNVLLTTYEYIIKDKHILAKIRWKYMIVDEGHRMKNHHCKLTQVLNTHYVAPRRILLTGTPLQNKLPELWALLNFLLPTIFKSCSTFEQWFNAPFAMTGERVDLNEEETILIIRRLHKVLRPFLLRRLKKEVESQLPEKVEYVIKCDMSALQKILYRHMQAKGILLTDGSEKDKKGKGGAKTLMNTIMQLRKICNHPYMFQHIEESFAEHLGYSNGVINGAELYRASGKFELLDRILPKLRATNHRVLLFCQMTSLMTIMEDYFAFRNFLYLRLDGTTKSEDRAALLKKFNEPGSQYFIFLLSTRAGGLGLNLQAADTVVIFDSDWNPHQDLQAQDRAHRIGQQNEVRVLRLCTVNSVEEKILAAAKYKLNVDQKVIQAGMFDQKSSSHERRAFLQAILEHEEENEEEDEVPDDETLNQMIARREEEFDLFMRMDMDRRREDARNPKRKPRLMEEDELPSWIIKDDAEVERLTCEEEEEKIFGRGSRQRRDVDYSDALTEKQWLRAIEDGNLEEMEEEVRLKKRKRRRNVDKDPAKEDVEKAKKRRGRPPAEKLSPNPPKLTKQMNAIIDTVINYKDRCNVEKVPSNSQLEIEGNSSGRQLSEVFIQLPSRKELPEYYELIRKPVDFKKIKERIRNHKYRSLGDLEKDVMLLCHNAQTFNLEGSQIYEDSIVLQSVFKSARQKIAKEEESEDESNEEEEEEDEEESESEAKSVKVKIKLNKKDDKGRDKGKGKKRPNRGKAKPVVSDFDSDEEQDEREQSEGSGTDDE

[23] = target: Potassium voltage-gated channel subfamily KQT member 2 (Rattus norvegicus, UniProt O88943); assay: KCNQ2 potassium channel inhibitors, dose response, cell-based, automated electrophysiology, set II, rat KCNQ2 (AID 588637); assay type: functional
Potassium voltage-gated channel subfamily KQT member 2, sequence (O88943 whole entry): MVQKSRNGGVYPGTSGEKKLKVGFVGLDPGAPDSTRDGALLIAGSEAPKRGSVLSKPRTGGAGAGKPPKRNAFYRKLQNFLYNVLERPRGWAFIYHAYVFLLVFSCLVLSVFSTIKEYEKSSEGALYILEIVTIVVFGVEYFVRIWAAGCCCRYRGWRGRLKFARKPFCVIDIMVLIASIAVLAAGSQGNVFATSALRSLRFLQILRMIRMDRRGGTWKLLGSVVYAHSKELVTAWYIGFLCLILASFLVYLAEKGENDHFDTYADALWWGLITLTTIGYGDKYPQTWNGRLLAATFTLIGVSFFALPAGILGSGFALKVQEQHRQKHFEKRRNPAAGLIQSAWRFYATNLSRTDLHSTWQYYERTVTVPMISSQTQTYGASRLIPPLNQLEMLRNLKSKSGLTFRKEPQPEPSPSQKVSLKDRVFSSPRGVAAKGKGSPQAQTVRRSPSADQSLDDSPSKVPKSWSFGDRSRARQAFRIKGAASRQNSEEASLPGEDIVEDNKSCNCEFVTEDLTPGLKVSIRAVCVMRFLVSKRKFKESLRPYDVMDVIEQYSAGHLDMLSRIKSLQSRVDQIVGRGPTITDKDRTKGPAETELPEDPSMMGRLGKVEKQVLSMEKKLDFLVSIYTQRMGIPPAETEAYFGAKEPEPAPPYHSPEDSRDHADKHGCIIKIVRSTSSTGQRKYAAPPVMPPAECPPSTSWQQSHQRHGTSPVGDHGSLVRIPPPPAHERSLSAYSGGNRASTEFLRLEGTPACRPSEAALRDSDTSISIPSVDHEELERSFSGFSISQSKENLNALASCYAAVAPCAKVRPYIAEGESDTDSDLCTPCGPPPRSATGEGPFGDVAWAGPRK

## O=c1/c(=C\c2ccc(O)cc2)sc2n1C(c1ccccc1)C(c1ccccc1)=NN=2 (stereo not drawn)
[1]
  AC50: 4.47 µM (inconclusive)
[2]
  CC50: 33 µM (active)
[3]
  IC50: 32.1 µM (active)
[4]
  IC50: 13.7 µM (active)

## c1ccc(-c2cc(N3CCCCC3)c3ccccc3n2)cc1
[5]
  IC50: 9.25 µM (active)
[6]
  IC50: 3.92 µM (not active)
[7]
  IC50: 14 µM (active)

## Oc1ccc(O)c2c(O)cccc12
[8]
  AC50: 39.8 µM (inconclusive)

## COc1cc(/C=N/Nc2nc(Nc3ccc(C)cc3)nc(-n3nc(C)cc3C)n2)cc(OC)c1OC
[9]
  EC50: 11 µM (active)
[10]
  EC50: > 150 µM (not active)
[11]
  IC50: > 64.6 µM (inactive)
[12]
  EC50: 15.5 µM (active)
[13]
  AC50: 6.57 µM (active)
[14]
  IC50: > 64.6 µM (inactive)
[15]
  AC50: 38.4 µM (active)
[16]
  IC50: > 100 µM (inactive)
[17]
  EC50: 0.608 µM (active)
[18]
  EC50: 1.82 µM (active)
[19]
  IC50: > 100 µM (not active)

## C[C@H](CO)N1C[C@H](C)[C@H](CN(C)Cc2ccc(C(F)(F)F)cc2)Oc2c(NC(=O)c3ccncc3)cccc2C1=O
[20]
  AC50: 39 µM (inactive)

## Nc1nc2nn[nH]c2c(=O)[nH]1 [8-AZAGUANINE]
[21]
  AC50: 0.875 µM (active)
[22]
  EC50: > 91.2 µM (inactive)

## CCOC(=O)N1CCC(N(CCOC)C(=O)Nc2ccc(C)c(C)c2)CC1
[23]
  IC50: 0.477 µM (active)

Source: ChEMBL document CHEMBL1201862, “PubChem BioAssay data set” (2004)
